Laboratory results reported in US11279707B2, “NEK inhibitors and methods of use” (DANA-FARBER CANCER INSTITUTE, INC., priority 2017, dated 2022).

Legend:
Assay type in all cases: biochemical
NEK6 = NEK6 (Homo sapiens, UniProt Q9HC98); assay: kinase inhibition, NEK6
AXL = biological target: T1, AXL (Homo sapiens, UniProt P30530); assay: kinase inhibition, AXL
T1 sequence (P30530 26-894): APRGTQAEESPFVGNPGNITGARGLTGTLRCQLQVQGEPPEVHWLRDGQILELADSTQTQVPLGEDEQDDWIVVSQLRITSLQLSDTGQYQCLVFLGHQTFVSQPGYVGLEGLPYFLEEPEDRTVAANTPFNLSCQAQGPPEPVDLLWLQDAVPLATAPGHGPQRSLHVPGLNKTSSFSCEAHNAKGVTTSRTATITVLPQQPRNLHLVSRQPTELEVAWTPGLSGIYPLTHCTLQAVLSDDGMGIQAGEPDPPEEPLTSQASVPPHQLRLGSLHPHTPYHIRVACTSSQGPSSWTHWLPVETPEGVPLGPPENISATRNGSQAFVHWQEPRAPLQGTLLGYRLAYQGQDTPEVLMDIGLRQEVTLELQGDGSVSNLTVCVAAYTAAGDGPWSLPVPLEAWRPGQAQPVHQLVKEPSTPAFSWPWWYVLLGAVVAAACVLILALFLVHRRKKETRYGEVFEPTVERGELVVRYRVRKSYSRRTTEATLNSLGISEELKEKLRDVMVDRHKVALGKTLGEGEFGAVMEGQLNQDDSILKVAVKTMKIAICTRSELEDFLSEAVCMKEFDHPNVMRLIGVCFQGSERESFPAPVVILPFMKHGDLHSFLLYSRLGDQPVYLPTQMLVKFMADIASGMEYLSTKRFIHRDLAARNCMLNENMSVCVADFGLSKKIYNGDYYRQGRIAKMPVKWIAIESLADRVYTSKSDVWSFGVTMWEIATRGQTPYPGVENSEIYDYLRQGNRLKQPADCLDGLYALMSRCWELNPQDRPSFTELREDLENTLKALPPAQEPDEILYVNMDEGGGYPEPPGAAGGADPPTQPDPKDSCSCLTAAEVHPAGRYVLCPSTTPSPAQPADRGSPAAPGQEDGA

GSK3B = GSK3B (Homo sapiens, UniProt P49841); assay: kinase inhibition, GSK3B
NEK2 = biological target: T2, NEK2 (Homo sapiens, UniProt P51955); assay: kinase inhibition, NEK2
T2 sequence (P51955 1-445): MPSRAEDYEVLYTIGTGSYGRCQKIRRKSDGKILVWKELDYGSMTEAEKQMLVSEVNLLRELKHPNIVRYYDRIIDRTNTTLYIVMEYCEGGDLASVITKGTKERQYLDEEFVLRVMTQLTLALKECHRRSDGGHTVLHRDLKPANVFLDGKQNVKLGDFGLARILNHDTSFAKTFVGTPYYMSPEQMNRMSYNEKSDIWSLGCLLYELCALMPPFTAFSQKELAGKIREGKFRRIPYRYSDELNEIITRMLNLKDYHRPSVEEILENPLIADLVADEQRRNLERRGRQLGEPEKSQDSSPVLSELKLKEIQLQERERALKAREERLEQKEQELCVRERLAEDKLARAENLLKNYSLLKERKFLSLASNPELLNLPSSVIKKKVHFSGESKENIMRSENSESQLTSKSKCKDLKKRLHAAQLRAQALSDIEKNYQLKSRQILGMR

DRAK1 = biological target: T3, DRAK1 (Homo sapiens, UniProt Q9UEE5); assay: kinase inhibition, DRAK1
T3 sequence (Q9UEE5 1-414): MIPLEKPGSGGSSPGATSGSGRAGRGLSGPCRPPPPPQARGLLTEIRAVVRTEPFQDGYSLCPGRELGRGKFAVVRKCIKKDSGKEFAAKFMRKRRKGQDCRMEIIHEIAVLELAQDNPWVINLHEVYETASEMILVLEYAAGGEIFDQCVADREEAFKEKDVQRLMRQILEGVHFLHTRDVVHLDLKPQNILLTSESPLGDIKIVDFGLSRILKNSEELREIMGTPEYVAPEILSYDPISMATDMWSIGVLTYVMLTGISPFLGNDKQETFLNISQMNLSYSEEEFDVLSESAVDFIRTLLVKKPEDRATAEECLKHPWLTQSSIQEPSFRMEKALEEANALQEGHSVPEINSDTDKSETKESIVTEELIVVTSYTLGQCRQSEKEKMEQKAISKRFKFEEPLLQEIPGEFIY

DMPK = biological target: T4, DMPK (Homo sapiens, UniProt Q09013); assay: kinase inhibition, DMPK
T4 sequence (Q09013 1-629): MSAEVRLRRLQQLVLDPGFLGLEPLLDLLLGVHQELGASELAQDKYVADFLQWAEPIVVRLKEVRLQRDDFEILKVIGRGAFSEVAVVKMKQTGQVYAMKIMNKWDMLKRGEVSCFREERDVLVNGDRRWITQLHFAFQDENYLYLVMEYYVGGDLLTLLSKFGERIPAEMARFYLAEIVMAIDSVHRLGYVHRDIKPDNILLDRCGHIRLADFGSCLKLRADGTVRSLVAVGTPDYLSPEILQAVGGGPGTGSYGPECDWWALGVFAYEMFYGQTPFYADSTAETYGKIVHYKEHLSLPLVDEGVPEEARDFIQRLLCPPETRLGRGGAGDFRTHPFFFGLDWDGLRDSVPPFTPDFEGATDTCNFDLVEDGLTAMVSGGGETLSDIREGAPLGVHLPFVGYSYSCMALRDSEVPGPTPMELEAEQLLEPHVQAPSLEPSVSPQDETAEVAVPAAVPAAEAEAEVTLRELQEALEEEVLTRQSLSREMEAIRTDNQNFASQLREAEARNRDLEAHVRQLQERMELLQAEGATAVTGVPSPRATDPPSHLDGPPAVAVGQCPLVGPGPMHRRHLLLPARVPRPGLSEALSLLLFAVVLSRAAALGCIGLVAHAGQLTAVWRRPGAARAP

SLK = SLK (Homo sapiens, UniProt Q9H2G2); assay: kinase inhibition, SLK
Chain of SLK (Q9H2G2 whole entry): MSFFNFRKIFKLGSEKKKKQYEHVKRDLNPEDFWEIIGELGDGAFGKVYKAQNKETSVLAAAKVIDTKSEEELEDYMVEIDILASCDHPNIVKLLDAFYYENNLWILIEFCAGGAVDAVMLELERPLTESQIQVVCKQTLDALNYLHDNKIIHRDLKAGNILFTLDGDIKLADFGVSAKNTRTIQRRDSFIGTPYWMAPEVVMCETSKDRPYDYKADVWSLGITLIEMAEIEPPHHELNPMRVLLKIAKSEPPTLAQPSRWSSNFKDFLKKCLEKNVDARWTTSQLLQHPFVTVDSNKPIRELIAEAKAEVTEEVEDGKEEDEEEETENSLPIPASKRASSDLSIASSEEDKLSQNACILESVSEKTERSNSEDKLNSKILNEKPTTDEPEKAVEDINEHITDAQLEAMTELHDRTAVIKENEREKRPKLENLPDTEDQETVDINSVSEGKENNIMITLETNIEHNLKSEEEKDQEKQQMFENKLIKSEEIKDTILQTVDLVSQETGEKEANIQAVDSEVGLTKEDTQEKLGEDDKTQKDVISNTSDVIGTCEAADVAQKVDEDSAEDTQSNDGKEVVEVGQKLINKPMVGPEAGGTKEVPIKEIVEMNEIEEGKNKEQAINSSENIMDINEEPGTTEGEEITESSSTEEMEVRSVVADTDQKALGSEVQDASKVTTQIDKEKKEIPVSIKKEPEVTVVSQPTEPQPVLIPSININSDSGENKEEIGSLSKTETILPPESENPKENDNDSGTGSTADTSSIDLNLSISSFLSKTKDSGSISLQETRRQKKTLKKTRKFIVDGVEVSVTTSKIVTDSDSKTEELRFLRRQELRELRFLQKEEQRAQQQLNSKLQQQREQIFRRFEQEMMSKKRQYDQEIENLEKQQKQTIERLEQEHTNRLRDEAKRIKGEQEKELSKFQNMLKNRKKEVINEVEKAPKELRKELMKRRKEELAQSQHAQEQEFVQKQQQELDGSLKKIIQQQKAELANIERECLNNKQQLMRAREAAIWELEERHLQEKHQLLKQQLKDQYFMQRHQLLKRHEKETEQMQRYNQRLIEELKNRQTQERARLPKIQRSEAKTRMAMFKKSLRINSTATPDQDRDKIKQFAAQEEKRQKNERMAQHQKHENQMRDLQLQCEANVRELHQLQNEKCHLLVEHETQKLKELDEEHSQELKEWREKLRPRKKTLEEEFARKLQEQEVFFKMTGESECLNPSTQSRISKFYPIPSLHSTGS

Chain of GSK3B (P49841 whole entry, species assumed): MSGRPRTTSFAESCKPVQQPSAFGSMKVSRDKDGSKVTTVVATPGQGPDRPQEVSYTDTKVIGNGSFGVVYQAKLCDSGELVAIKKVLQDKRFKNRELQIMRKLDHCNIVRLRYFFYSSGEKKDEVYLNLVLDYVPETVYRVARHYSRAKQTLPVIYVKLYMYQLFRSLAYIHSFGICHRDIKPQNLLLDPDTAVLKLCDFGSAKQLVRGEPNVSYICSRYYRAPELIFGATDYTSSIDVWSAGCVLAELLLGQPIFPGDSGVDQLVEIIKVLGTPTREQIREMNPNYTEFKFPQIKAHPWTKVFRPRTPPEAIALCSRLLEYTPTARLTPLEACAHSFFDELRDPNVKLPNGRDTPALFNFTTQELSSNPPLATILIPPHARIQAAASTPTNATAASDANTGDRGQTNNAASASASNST
Chain of NEK6 (Q9HC98 whole entry, species assumed): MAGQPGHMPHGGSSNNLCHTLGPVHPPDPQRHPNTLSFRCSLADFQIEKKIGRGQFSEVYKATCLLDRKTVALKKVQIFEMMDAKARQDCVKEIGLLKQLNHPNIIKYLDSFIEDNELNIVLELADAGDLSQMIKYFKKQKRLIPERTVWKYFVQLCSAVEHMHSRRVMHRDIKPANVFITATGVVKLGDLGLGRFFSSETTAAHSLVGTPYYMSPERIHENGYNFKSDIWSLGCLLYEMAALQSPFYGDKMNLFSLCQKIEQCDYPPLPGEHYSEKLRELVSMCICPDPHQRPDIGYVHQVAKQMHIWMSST

Row | IC50 (NEK6) [nM] | IC50 (AXL) [nM] | IC50 (GSK3B) [nM] | IC50 (NEK2) [nM] | IC50 (DRAK1) [nM] | IC50 (DMPK) [nM] | IC50 (SLK) [nM] | SMILES
1 | 250 to 1000 | ≥ 5000 | 1000 to 5000 | 50 to 250 | 50 to 250 | ≥ 5000 | 1000 to 5000 | COc1cc(N2CCC(O)CC2)ccc1Nc1ncc2c(n1)n1c(cc3ccccc31)c(=O)n2C [Compound I-2]
2 | 50 to 250 | 50 to 250 | 250 to 1000 | ≤ 50 | 50 to 250 | 50 to 250 | 50 to 250 | CN1CCN(c2ccc(Nc3ncc4c(n3)n3c(cc5ccccc53)c(=O)n4C)cc2)CC1 [Compound I-1]
3 | 250 to 1000 | 1000 to 5000 | ≥ 5000 | ≤ 50 | 250 to 1000 | 250 to 1000 | 1000 to 5000 | COc1cc(C2CCN(C)CC2)ccc1Nc1ncc2c(n1)n1c(cc3ccccc31)c(=O)n2C [Compound I-6]
4 | 1000 to 5000 | ≥ 5000 | ≥ 5000 | 50 to 250 | 1000 to 5000 | 250 to 1000 | 1000 to 5000 | COc1cc(C(=O)N2CCC(N3CCN(C)CC3)CC2)ccc1Nc1ncc2c(n1)n1c(cc3ccccc31)c(=O)n2C [Compound I-4]
5 | ≥ 5000 | 1000 to 5000 | ≥ 5000 | 50 to 250 | 250 to 1000 | ≥ 5000 | 250 to 1000 | CN1CCN(c2ccc(Nc3ncc4c(n3)n3c(cc5ccccc53)c(=O)n4C)cc2C(F)(F)F)CC1 [Compound I-5]
6 | 50 to 250 | ≥ 5000 | 1000 to 5000 | 50 to 250 | 50 to 250 | ≥ 5000 | 1000 to 5000 | COc1cc(N2CCN(C)CC2)ccc1Nc1ncc2c(n1)n1c(cc3ccccc31)c(=O)n2C [Compound I-3]
